One molecule from patent US10093642B2, “Multitarget hedgehog pathway inhibitors and uses thereof” (UNIVERSITA' DEGLI STUDI DI SIENA, priority 2013, dated 2018) can be followed below.

Experiment [1] relates to Wnt/Bcatenin. Nature of the experiment: Selectivity: unrelated signal transduction pathway Wnt/Bcatenin. The class given is cell-based.
Experiment [2] has as its system human MB D283 cells. The experiment can be described thus: Proliferation (BrdU), viability (MTS) and cell death (Trypan Blue) of MB D283 cells. The class given is cell-based. The following applies: 48 h. As to the method: FIG. 11. (A) Human MB D283 cells were treated with different concentrations of Glabrescione B as indicated for 48 h. Inhibition of cell proliferation was measured as percentage of BrdU incorporation in comparison to DMSO (0.5%, vehicle) treated sample. (B) Human MB D283 cells were treated for 48 h with increasing concentrations of Glabrescione B as indicated. After 48 h, CellTiter 96® Aqueous One Solution Reagent was added to each well according to the manufacturer's instructions. After one hour in culture the cell viability (expressed in % viability) was determined by measuring the absorbance at 490 nm comparing treatment with DMSO (0.5%, vehicle) control.
FIG. 12. […]
A biological assay was performed in cerebellar neural progenitors cells obtained from 4-days-old mice, when they are actively proliferating under Sonic Hedgehog (Shh) stimulus. As expected, treatment of these cells with Shh increased the proliferation rate, as evaluated by BrdU-incorporation assay. […]
More important, Glabrescione B was able to promote cell death of D283 MB cells, as reported by Trypan Blue count assay (FIG. 12). […] Cell death was measured by Trypan Blue (Sigma, cat. #T8154) exclusion counting at least 200 cells, in duplicate samples. All described assays were evaluated at 48 h after treatment.

Experiment [3] deals with MEF-Ptch−/− cells. The experiment can be described thus: Gli1 mRNA (quantitative RT-PCR) and protein (western blot) in MEF-Ptch−/− cells. The class given is cell-based, mouse. The following applies: different concentrations, 48 h. As to the method:
FIG. 8. […] (A) Gli1 mRNA levels were determined by quantitative RT-PCR, normalizing to HPRT (Hypoxanthine-guanine phosphoribosyl transferase) expression. Error bars indicate SD.
To analyze the antagonist properties of Glabrescione B under more physiological conditions, the inventors used MEF-Ptch^−/− cells, embryo fibroblasts derived from Ptch^−/− mouse, in which the activation of Hh signaling is consequence of Ptch1 deletion. Since Patched acts as upstream repressor of SMO, inhibition of the Hedgehog pathway from Patched is prevented and the Hedgehog pathway is constitutively activated in this cell lines, which turned out to be a reliable cellular model for studying the effect of Hedgehog inhibitors. […]
In order to determine whether Glabrescione B regulates cells with a constitutive Hh pathway activation, the MEF-Ptch^−/− cell line (a kind gift by M. Scott, Stanford University, CA, in which the activation of Hh signaling is consequence of Ptch1 deletion, Goodrich, L. V. et al, 1997) was treated with Glabrescione B at different concentrations and the effect on expression of Hh/Gli1 pathway was determined by quantitative RT-PCR and western blot analysis. […] Quantitative PCR (QPCR) analysis of Gli1 mRNA expression was performed on each cDNA sample using the ABI Prism 7900 Sequence Detection System employing Assay-on-Demand Reagents (Life Technologies). […]

The test system of experiment [4] is Jun/AP1activation. The experiment can be described thus: Selectivity: unrelated signal transduction pathway Jun/AP1 activation. The class given is cell-based.
In experiment [5] the test system is Cancer stem cells (CSCs) isolated from murine Ptch+/− MB. Nature of the experiment: Gli1 mRNA in MB cancer stem cells (neurospheres). Conditions: 48 h, quantitative RT-PCR. The class given is cell-based. As to the method: FIG. 13. […] Gli1 mRNA levels were determined by quantitative RT-PCR using HPRT as normalizer.
Hh activity preferentially associates to stemness features. For this reason, the Hh pathway antagonist Glabrescione B has also been investigated for its ability to modulate the behavior of MB cancer stem cells (CSCs).
It has been described that Hh activity preferentially associates to stemness features. In order to determine whether Glabrescione B also modulates the behavior of MB cancer stem cells (CSCs), neurospheres isolated from murine Ptch^+/− MB were treated with Glabrescione B for 48 h and the levels of Gli1 were determined by quantitative RT-PCR. Murine MBs were isolated from Ptch1^+/− mice (Goodrich, Milenkivic et al. 1997). Tissues were collected in HBSS supplemented with 0.5% glucose and penicillin-streptomycin, grossly triturated with serological pipette and treated with DNAse I to a final concentration of 0.04% for 20 min. Finally, cells aggregates were mechanically dissociated using pipettes of decreasing bore size to obtain a single cell suspension. […]

Regarding `COc1cc(OC)c2c(=O)c(-c3ccc(OCC=C(C)C)c(OCC=C(C)C)c3)coc2c1` [Glabrescione B, 3-(3′,4′-bis(3-methylbut-2-enyloxy)phenyl)-5,7-dimethoxy-4H-chromen-4-one], the inhibition at 30 µM in experiment [1] and in experiment [4] was 0% in each case. Also, the “percentage of cell death (Trypan Blue)” value in experiment [2] is on record as “increase of the percentage of cell death, in a dose-dependent manner”. Further, the growth rate inhibition in experiment [2] (dose range of 1-50 μM, MTS and BrdU incorporation) is listed as 70-95%. The “Gli1 mRNA and protein levels” value in experiment [3] is “strongly reduced mRNA and protein levels of Gli1”. The “Gli1 mRNA levels in MB CSCs” value in experiment [5] is on record as “reduction of Gli1 mRNA levels”.
